Source: patent US12582116B2, “Agricultural formulations” (Dow Global Technologies LLC, priority 2020, dated 2026)

How the values were obtained:
[1] = Mutual solubility of Formula 1 solvent and water (Example 1); assay type: physicochemical; settings: for solubility in water: solvent dissolved in water
Protocol: The solubility of Formula 1 Solvent A in water is measured to be 0.67 weight percent. The solubility of water in Formula 1 Solvent A is measured to be 1.44 weight percent.

[2] = Solubility of agricultural active ingredients in solvent by visual observation, Formula 1 Solvent A vs aromatic hydrocarbon (Example 2)
Protocol: The aromatic hydrocarbon solvent used is Aromatic 150 from Exxon Mobil Corporation (“Aromatic Hydrocarbon”). The agricultural active ingredients used are bifenthrin, tebuconazole, nitrapyrin, and dicamba acid.
(§1) The solubilities are determined by visual observation using the following method. Four milliliter vials are charged with agricultural active ingredient (10 to 50 wt %) and the specified solvent (90 to 50 wt %). The vials are capped and taped to seal with electric tape. The vials are secured in a plastic container and shaken on a laboratory shaker for 12 hours at ambient laboratory temperature and humidity. After 12 hours, each sample set is evaluated for solubility of the agricultural active ingredient solid. Complete solubilization of the agricultural active ingredient is determined to be achieved if a homogeneous clear solution is observed. The formulations made with Formula 1 Solvent A represent some embodiments of agricultural formulations of the present invention.

[3] = Solubility of agricultural active ingredients in solvent by visual observation, Formula 1 Solvent A vs N,N-dialkyl fatty amide (Example 3)
Protocol: The N,N-dialkyl fatty amide solvent used is HALLCOMID™ M-10’, which is a N,N-dimethyldecanamide from Stepan Company (“N,N-dialkyl Fatty Amide”). The agricultural active ingredients used are bifenthrin, tebuconazole, nitrapyrin, and dicamba acid.
as §1

[4] = in Aromatic Hydrocarbon (Aromatic 150, Exxon Mobil), shaken 12 hours at ambient laboratory temperature, visual observation, Table 2
[5] = in Formula 1 Solvent A (ethyl 2-furoate, Ethyl 408), shaken 12 hours at ambient laboratory temperature, visual observation, Table 2
[6] = in Formula 1 Solvent A (ethyl 2-furoate, Ethyl 408), shaken 12 hours at ambient laboratory temperature, visual observation, Table 3
[7] = in N,N-dialkyl Fatty Amide (HALLCOMID M-10, N,N-dimethyldecanamide), shaken 12 hours at ambient laboratory temperature, visual observation, Table 3

| Molecule | solubility in water [1] [weight percent] | Agricultural Active Ingredient Solubility [2, 4] [wt %] | Agricultural Active Ingredient Solubility [2, 5] [wt %] | Agricultural Active Ingredient Solubility [3, 6] [wt %] | Agricultural Active Ingredient Solubility [3, 7] [wt %] | solubility of water in Formula 1 Solvent A ([1]; water dissolved in the solvent) [weight percent] | Agricultural Active Ingredient Solubility [2] [wt %] | Agricultural Active Ingredient Solubility [3] [wt %] |
| --- | --- | --- | --- | --- | --- | --- | --- | --- |
| 5-methyl-2-furoate | 0.67 | – | – | – | – | – | – | – |
| Cc1c(COC(=O)[C@@H]2[C@H](/C=C(\Cl)C(F)(F)F)C2(C)C)cccc1-c1ccccc1 (racemic) [Bifenthrin, bifenthrin] | – | 40 | 30 | 30 | 30 | – | – | – |
| COc1c(Cl)ccc(Cl)c1C(=O)O [Dicamba Acid, dicamba acid] | – | <10 | 40 | 40 | <10 | – | – | – |
| CCOC(=O)c1ccco1 [Formula 1 Solvent A, ethyl 2-furoate] | 0.67 | – | – | – | – | 1.44 | – | – |
| Clc1cccc(C(Cl)(Cl)Cl)n1 [Nitrapyrin, nitrapyrin] | – | – | – | – | – | – | >50 | >50 |
| CC(C)(C)C(O)(CCc1ccc(Cl)cc1)Cn1cncn1 (centres unmarked) [Tebuconazole, tebuconazole] | – | <10 | – | 20 | 30 | – | 20 | – |
